*1 amine or outer side, *2 acyl side, *3 side chain or, on linkers, in order; H or OH if unused. Where a SMILES comes first, the peptide text is derived from it. Bridges are numbered along the chain shown (N, C = ends). [ ]: non-standard residue; d: D form. X2 = O=C([C@H](CCNP(=O)(CC[*:3])OCc1ccccc1)N[*:1])[*:2]; Nle = CCCC[C@H](N)C(=O)O
Tested on: HeLa cells
Assay: Cellular uptake of CF-labelled peptides, confocal imaging
Assay type: cell-based
Details: 10 μM mixture of 10% fluorescein (CF) labelled and 90% non-labelled peptides, three hours, 37°C, confocal microscopy

Compound	cellular uptake
CCCC[C@H](NC(=O)[C@H](CCCNC(=N)N)NC(=O)[C@H](CCC(N)=O)NC(=O)[C@@H](NC(=O)[C@H]1CSCCP(=O)(OCc2ccccc2)NCC[C@H](NC(=O)[C@H](CC(C)C)NC(=O)[C@H](CO)NC(=O)[C@H](CCCNC(=N)N)NC(=O)[C@H](CCC(=O)O)NC(=O)[C@H](CCCNC(=N)N)NC(=O)[C@H](Cc2c[nH]cn2)NC(=O)[C@H](CCC(=O)O)NC(=O)[C@H](CC(C)C)NC(=O)[C@H](CCC(N)=O)NC(=O)[C@H](CCC(=O)O)NC(=O)[C@H](CCC(N)=O)NC(=O)[C@H](CO)NC(=O)[C@H](CC(C)C)NC(C)=O)C(=O)N[C@@H]([C@@H](C)O)C(=O)N[C@@H](CC(C)C)C(=O)N[C@@H](CCCNC(=N)N)C(=O)N1)[C@@H](C)CC)C(=O)N[C@@H](CC(C)C)C(=O)N[C@@H](Cc1ccccc1)C(N)=O (stereo partly drawn) [compound 13, cyclic-benzylphosphonamidate-BCL9-Nle-Aha-DCys peptide] (Ac-LSQEQLEHRERSL[X2]TLR[dC]IQR[Nle]LF-NH2; thioether 14-18; N-terminus and C-terminus assumed)	increased cellular uptake
AcLSQEQLEHRERSL TLR IQRNMLFNH2 (sidechain bridge or staple) [compound 7, RCM-BCL9-Nle peptide]	taken up readily
